Test results as given in patent publication US10202343B2, “MIF modulators” (YALE UNIVERSITY, priority 2008, dated 2019).
pIC50: −log10 of the molar value. Read-outs that look alike come from different tables or passages of the source. Blank lines part the entries; values can stand above or below the compound they belong to.

Assays:
[1] = molecular target: T1, MIF-CD74 Binding (biotin-labeled recombinant human MIF, recombinant human MIF receptor CD74 ectodomain) (Homo sapiens, UniProt P14174); experiment: MIF-CD74 binding (capture) assay; design: concentration of C74 % MaxInhib (number after @): unit not given here; conditions: for % Bound: Table 19; for pIC50: read-out: CD74 IC50; for CD74 % MaxInhib / C74 % MaxInhib: number before @
T1 sequence (P14174 2-115 limits assumed): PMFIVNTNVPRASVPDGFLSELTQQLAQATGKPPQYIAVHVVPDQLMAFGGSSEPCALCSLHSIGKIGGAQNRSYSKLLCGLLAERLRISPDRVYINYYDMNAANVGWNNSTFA

[2] = molecular target: T2, Human MIF (MIF tautomerase activity) (Homo sapiens, UniProt P14174); experiment: HPP tautomerase assay; assay type: biochemical; conditions: for pIC50: read-out: HPP IC50
T2 construct: made in house
T2 sequence (P14174 2-115 limits assumed): T1 sequence (P14174 2-115 limits assumed)

[3] = Table 13, data cell c5, number before @

activity in the capture assay [1]: inactive | activity in the HPP tautomerase assay [2]: inactive
SMILES: COC(=O)CC1CC(c2ccc(O)cc2)=NO1 (stereo not drawn) [ISO-1, reference compound]

% Bound [1]: 96% | pIC50 ([1]; Table 19, data cell c5): 2.22
SMILES: Oc1ccc(-c2cn(Cc3ccccc3)nn2)cc1 [MIF-002]

pIC50 ([1]; Table 18): 5.46
SMILES: Oc1ccc(-n2cc(Cc3ccccc3)nn2)cc1 [MIF-003]

% Bound [1]: 94%
SMILES: COc1ccc(Cn2cc(-c3ccc(O)cc3)nn2)cc1 [MIF-004]

% Bound [1]: 67% | pIC50 ([1]; Table 19, data cell c5): 4.00
SMILES: COc1cccc(Cn2cc(-c3ccc(O)cc3)nn2)c1 [MIF-005]

pIC50 ([2]; Table 20): 3.01
SMILES: Oc1ccc(-c2cn(-c3cccnc3)nn2)cc1 [MIF-007]

pIC50 ([2]; Table 20): 4.49
SMILES: Oc1ccc(-c2cn(-c3cncc4ccccc34)nn2)cc1 [MIF-008]

IC50 ([1]; Table 21, column beside HPP IC50): Agonist | HPP IC50 ([2]; Table 21): agonist
SMILES: Oc1ccc(-n2cc(-c3cncc4ccccc34)nn2)cc1 [MIF-021]

% Bound [1]: 100%
SMILES: Cc1cccc(Cn2cc(-c3ccc(O)cc3)nn2)c1 [MIF-031]

% Bound [1]: 100%
SMILES: Cc1ccccc1Cn1cc(-c2ccc(O)cc2)nn1 [MIF-032]

CD74 IC50 ([1]; Table 19, data cell c5): agonist | HPP IC50 ([2]; Table 19, data cell c6): agonist
SMILES: COc1ccccc1Cn1cc(-c2ccc(O)cc2)nn1 [MIF-033]

pIC50 ([1]; Table 19, data cell c5): 5.92 | pIC50 ([2]; Table 19, data cell c6): 6.00 to 6.30
SMILES: COc1cccc(Cn2cc(-c3ccc(O)cc3)nn2)c1OC [MIF-034]

pIC50 ([1]; Table 20): 3.52
SMILES: Oc1ccc(-c2cn(Cc3ccccn3)nn2)cc1 [MIF-035]

pIC50 ([1]; Table 19, data cell c5): 5.92 | pIC50 ([2]; Table 19, data cell c6): 5.60
SMILES: COC(=O)c1cccc(Cn2cc(-c3ccc(O)cc3)nn2)c1 [MIF-036]

% Bound [1]: 70-90%
SMILES: O=C(O)c1cccc(Cn2cc(-c3ccc(O)cc3)nn2)c1 [MIF-037]

pIC50 ([1]; Table 17): 3.05
SMILES: Oc1ccc2c(c1)oc1ccccc12 [MIF-039]

SMILES: NC(=O)c1nc2ccccc2n1Cc1ccccc1 [MIF-062]
concentration of CD74 % MaxInhib (number after @) ([1]; Table 5): 1.87 µM | CD74 % MaxInhib ([1]; Table 5): 25% | HPP Max Inhib ([2]; Table 5): 16%

SMILES: CN(C)C(=O)c1nc2ccccc2n1Cc1ccccc1 [MIF-063]
concentration of CD74 % MaxInhib (number after @) ([1]; Table 5): 1.87 µM | CD74 % MaxInhib ([1]; Table 5): 27% | HPP Max Inhib ([2]; Table 5): 0%

SMILES: CNC(=O)c1nc2ccccc2n1Cc1ccccc1 [MIF-065]
concentration of CD74 % MaxInhib (number after @) ([1]; Table 5): 1.87 µM | CD74 % MaxInhib ([1]; Table 5): 16% | HPP Max Inhib ([2]; Table 5): 13%

concentration of CD74 % MaxInhib (number after @) ([1]; Table 5): 1.87 µM | CD74 % MaxInhib ([1]; Table 5): 25% | HPP Max Inhib ([2]; Table 5): 18%
SMILES: COCCc1nc2ccccc2n1Cc1ccccc1 [MIF-066]

concentration of C74 % MaxInhib (number after @) ([1]; Table 18): 0.0078 | C74 % MaxInhib ([1]; Table 18): 14% | pIC50 ([2]; Table 18): 3.12
SMILES: Oc1ccc(-n2cc(Cc3ccccc3)nn2)cc1F [MIF-069]

concentration of C74 % MaxInhib (number after @) ([1]; Table 18): 0.0078 | C74 % MaxInhib ([1]; Table 18): 14% | concentration of HPP Max Inhib (number after @) ([2]; Table 18): 1000 | HPP Max Inhib ([2]; Table 18, number before @): 35%
SMILES: COc1ccccc1Cc1cn(-c2ccc(O)cc2)nn1 [MIF-070]

concentration of C74 % MaxInhib (number after @) ([1]; Table 18): 0.24 | C74 % MaxInhib ([1]; Table 18): 9% | pIC50 ([2]; Table 18): 3.00
SMILES: Oc1ccc(-n2cc(Cc3ccccc3O)nn2)cc1 [MIF-071]

concentration of CD74 % MaxInhib (number after @) ([1]; Table 13): 0.24 µM | CD74 % MaxInhib ([1]; Table 13): 9% | concentration of HPP Max Inhib (number after @) ([2]; Table 13): 1000 µM | HPP Max Inhib [2, 3]: 30%
SMILES: O=C(c1cc2ccccc2o1)c1cc2cc(O)ccc2o1 [MIF-072]

concentration of HPP Max Inhib (number after @) ([2]; Table 13): 700 µM | HPP Max Inhib [2, 3]: 47%
SMILES: Cc1ccc2oc(C(=O)c3cc4ccccc4o3)cc2c1 [MIF-078]

concentration of CD74 % MaxInhib (number after @) ([1]; Table 14): 0.24 µM | CD74 % MaxInhib ([1]; Table 14): 19%
SMILES: Cc1ccc2cc(C(=O)N3CCc4ccccc43)oc2c1 [MIF-082]

pIC50 ([2]; Table 18): 3.28
SMILES: COc1cccc(Cc2cn(-c3ccc(O)cc3)nn2)c1OC [MIF-084]

SMILES: O=Cc1cccc(-n2sc3cc(F)ccc3c2=O)c1 [MIF-135]
pIC50 ([2]; Table 6, data cell c7): 5.22

SMILES: COCc1cccc(-n2sc3cc(F)ccc3c2=O)c1 [MIF-136]
pIC50 ([2]; Table 6, data cell c7): 5.62

SMILES: COc1cccc(-n2sc3ccc(F)cc3c2=O)c1 [MIF-144]
pIC50 ([2]; Table 6, data cell c7): 5.56
